Results taken from patent publication US20230117286A1, “PHARMACEUTICAL COMPOSITION FOR PREVENTION OR TREATMENT OF NONALCOHOLIC STEATOHEPATITIS” (DONG-A ST CO., LTD., priority 2020, published 2023).

What was measured:
[1] = test system: mouse model with induced nonalcoholic steatohepatitis; experiment: NAFLD activity score (HE histology) in mouse model with nonalcoholic steatohepatitis; type: in vivo, C57BL/6J mouse; conditions: administered alone, compound 1 100 mg/kg/day, compared to before treatment
Protocol: (§1) A six-weeks-old male C57BL/6J mouse was fed with a special feed of high fat, high fructose, and high cholesterol (Research Diet, D09100301) for at least 27 weeks, and thus was induced to develop nonalcoholic steatohepatitis. After that, compound 1 was administered alone or in combination so that a daily dose reached 100 mg/kg/day. As the DPPIV inhibitor, evogliptin at 200 mg/kg/day or sitagliptin at 150 mg/kg/day was administered alone or in combination. As the PPAR agonist, elafibranor was administered alone or in combination so as to reach 30 mg/kg/day. As a method of administration alone or in combination, the above-described compound 1, DPPIV inhibitor, and/or PPAR agonist were prepared as a drug-diet admixture and supplied for 8 to 12 weeks.
For a histological examination, liver tissues were isolated through biopsy and autopsy from the mouse model with induced nonalcoholic steatohepatitis prepared above before and after drug administration and were fixed in 10% formalin so as to prepare a paraffin block and obtain a 2 μm thick tissue section. After that, hematoxylin and eosin (HE) stain was performed by using an automatic stainer (Autostainer XL, Leica) in order to confirm an infiltration of inflammatory cells. A ratio of lipid droplets deposited in the stained liver tissues, a degree of infiltration of inflammatory cells and a degree of cell necrosis were expressed as NAFLD activity scores (NAS), and the results thereof are shown in FIGS. 2 and 3.

[2] = test system: Primary human hepatic stellate cells; experiment: Pro-collagen 1a1 expression in TGFβ1-activated primary human hepatic stellate cells; type: cell-based; conditions: FIG. 13, TGFβ1 5 ng/ml, 18 hours; for protein expression of pro-collagen 1a1 induced by TGFβ1: each drug treated alone
Protocol: Primary human hepatic stellate cells (ScienCell, #5300) were stabilized for 24 hours, then cultured in a serum-free medium for 24 hours, and then treated with compound 1 in combination with elafibranor as a PPAR agonist, firsocostat as an ACC inhibitor, or obeticholic acid as a FXR agonist together with 5 ng/ml of recombinant […] (TGFβ1), after which the resulting cells were harvested in 18 hours later and an amount of pro-collagen 1a1 in total cell proteins was quantified with a commercialized ELISKA Kit (R&D Systems, DY6220), while an amount of total cell proteins was quantified and corrected by a BCA method, and the results of calculating a concentration response curve of each drug and a concentration (IC30) showing 30% inhibitory activity are shown in FIG. 13.
When compound 1 was treated in combination with the PPAR agonist or the ACC inhibitor, the CI was calculated to be 0.7 and 0.6, which was smaller than 1, thus confirming a synergistic effect. And the CI was calculated to be 1 when treated in combination with the FXR agonist, thus confirming an additive effect.

[3] = test system: human monocyte cell line (THP-1); experiment: Inflammatory cytokine secretion during differentiation of human monocytes into macrophages (PMA, then LPS); type: cell-based; conditions: FIG. 12; THP-1, PMA 50 ng/ml 48 hours, LPS 0.5 ng/ml four hours; compound 1 alone
Protocol: A human monocyte cell line (THP-1, ATCC® TIB-202™) was treated with 50 ng/ml of phorbol 12-myristate 13-acetate (PMA) for 48 hours and differentiated into macrophages, while being treated with compound 1 in combination with elafibranor as a PPAR agonist, firsocostat as an ACC inhibitor, obeticholic acid as a FXR agonist or cenicriviroc as a CCR2/5 dual antagonist, then replaced with a serum-free medium, and then treated with lipopolysaccharides (LPS; 0.5 ng/ml) for four hours, after which […], tumor necrosis factor α (TNFα; R&D Systems, DY210), and C—C motif chemokine ligand 2 (CCL2; R&D Systems, DY279), which are inflammatory cytokines secreted into the medium, were quantified with a commercially available ELISKA kit, so as to evaluate an effect on monocyte differentiation, and the results thereof are shown in FIG. 12.

[4] = test system: mouse model with induced nonalcoholic steatohepatitis; experiment: Blood AST and ALT, NASH mice; type: in vivo, C57BL/6J mouse; conditions: FIG. 11; compound 1 100 mg/kg/day, evogliptin 200 mg/kg/day, alone or in combination; combination compared to both drugs alone
Protocol: as §1
The mouse model with induced nonalcoholic steatohepatitis was subjected to autopsy, after which plasma was isolated therefrom, so as to quantify aspartate aminotransferase (AST) and alanine aminotransferase (ALT) by using an automatic blood analyzer (Konelab 20i).

[5] = test system: mouse model with induced nonalcoholic steatohepatitis; experiment: αSMA immunostaining in liver tissues, NASH mice; type: in vivo, C57BL/6J mouse; conditions: administered alone, compound 1 100 mg/kg/day
Protocol: as §1
To evaluate the effectiveness on fibrosis, an expression of a smooth muscle actin (αSMA) in a liver tissue section was measured through immunostaining so as to compare the ratio of activated stellate cells. After that, a ratio of the area stained by the αSMA antibody in the unit area was calculated through image analysis.

[6] = test system: mouse model with induced nonalcoholic steatohepatitis; experiment: Galectin-3 immunostaining in liver tissues, NASH mice; type: in vivo, C57BL/6J mouse; conditions: administered alone, compound 1 100 mg/kg/day
Protocol: as §1
To compare the degree of infiltration of inflammatory cells in liver tissues, an expression level of galectin-3, an indicator of increased expression in activated macrophages, was measured through immunostaining. After that, a ratio of the area stained by the galectin-3 antibody in the unit area was calculated through image analysis so as to evaluate the medicinal efficacy of ameliorating inflammation according to the co-administration.

[7] = test system: mouse model with induced nonalcoholic steatohepatitis; experiment: Plasma inflammation and fibrosis-related proteins (ELISA), NASH mice; type: in vivo, C57BL/6J mouse; conditions: FIG. 10
Protocol: as §1
To evaluate an effect on concentration of inflammation (CCL2, CXCl10, CXCl2, IL2 and TNFα) and fibrosis-related protein (TIMP1) in plasma, a concentration of CCL2, CXCl10, CXCl2, IL2, TNFα (MSD, K15255D-1) and TIMP1 (R&D Systems, MTM100) proteins in the plasma obtained from the mouse model was quantified by using a commercially available ELISA kit.

[8] = test system: mouse model with induced nonalcoholic steatohepatitis; experiment: Relative proportion of lipid droplets in liver tissues (image analysis of HE-stained tissue), NASH mice; type: in vivo, C57BL/6J mouse; conditions: for relative area of lipid droplets in liver tissues / ratio of fat (lipid droplets area) in liver tissues: compound 1 100 mg/kg/day, alone or in combination; for relative area of lipid droplets in liver tissues: evogliptin 200 mg/kg/day; for ratio of fat (lipid droplets area) in liver tissues: FIG. 5, elafibranor 30 mg/kg/day
Protocol: as §1
For quantitative comparison of fat accumulation in liver tissues, the HE-stained tissues were subjected to an image analysis to calculate a relative proportion of lipid droplets per unit area, thereby evaluating a medicinal efficacy of co-administration.

[9] = FIG. 2, evogliptin 200 mg/kg/day, drug-diet admixture 8 to 12 weeks
[10] = FIG. 3, elafibranor 30 mg/kg/day
[11] = FIG. 8, evogliptin 200 mg/kg/day
[12] = FIG. 9, elafibranor 30 mg/kg/day
[13] = FIG. 6, evogliptin 200 mg/kg/day
[14] = FIG. 7, elafibranor 30 mg/kg/day
[15] = NASH mice, compound 1 alone 100 mg/kg/day
[16] = compound 1 100 mg/kg/day alone or combined with sitagliptin 150 mg/kg/day

`CCc1cnc(N2CCC(CCCOc3cc(F)c(-c4noc(C(C)C)n4)c(F)c3)CC2)nc1` [compound 1, 3-(4-(3-(1-(5-ethylpyrimidin-2-yl)piperidin-4-yl)propoxy)-2,6-difluorophenyl)-5-isopropyl-1,2,4-oxadiazole] was tested, and the “NAFLD activity score (NAS)” value [1, 9] was “significantly improved”, the “NAFLD activity score (NAS)” value [1, 10] was “significantly improved” and the “protein expression of pro-collagen 1a1 induced by TGFβ1” value (“protein expression” for short) [2] was “inhibited in a concentration-dependent manner”. For the same compound, the “30% inhibitory concentration (IC30), pro-collagen 1a1” value ([2]; treated alone) was 550 nM, the CCL2 secretion [3] was “decreased in a concentration-dependent manner” and the IL-1β secretion [3] was “decreased in a concentration-dependent manner”. The TNFα secretion [3] was “decreased in a concentration-dependent manner”, the “plasma concentration of ALT” value [4] was “significantly reduced” and the “plasma concentration of AST” value [4] was “significantly reduced”. The “expression of αSMA in liver tissues” value [5, 11] was “significantly reduced”, the “expression of αSMA in liver tissues” value [5, 12] was “significantly reduced” and the “expression of galectin-3 in liver tissues” value [6, 13] was “significantly reduced”. The “expression of galectin-3 in liver tissues” value [6, 14] was “significantly decreased”, the “plasma concentration of CCL2” value [7, 15] was “significantly decreased” and the “plasma concentration of CXCl2” value [7, 15] was “significantly decreased”. The “plasma concentration of CXCl10” value [7, 15] was “significantly decreased”, the “plasma IL2” value [7, 16] was “tendency of decreasing” and the “plasma TNFα” value [7, 16] was “tendency of decreasing”. For the same compound, the “plasma TIMP1” value ([7]; compound 1 alone 100 mg/kg/day) was “significantly decreased”, the “relative area of lipid droplets in liver tissues” value ([8]; FIG. 4) was “significantly reduced” and the “size of lipid droplets in liver tissues” value ([8]; FIG. 4, compound 1 alone 100 mg/kg/day) was “decreased”. The “ratio of fat (lipid droplets area) in liver tissues” value [8] was “significantly reduced”.
`CSc1ccc(C(=O)/C=C/c2cc(C)c(OC(C)(C)C(=O)O)c(C)c2)cc1` [elafibranor, reference compound] was tested, and the “NAFLD activity score (NAS)” value [1, 10] was “significantly improved”, the “protein expression” value [2] was “relatively low response” and the “expression of αSMA in liver tissues” value [5, 12] was “no effect of significantly reducing”. For the same compound, the “expression of galectin-3 in liver tissues” value [6, 14] was “no effect of significantly decreasing” and the “ratio of fat (lipid droplets area) in liver tissues” value [8] was “significantly reduced”.
For `CC(C)(C)OC[C@@H]1C(=O)NCCN1C(=O)C[C@H](N)Cc1cc(F)c(F)cc1F` [evogliptin, reference compound], the “NAFLD activity score (NAS)” value [1, 9] was “insignificant”, the “plasma concentration of ALT” value [4] was “significantly reduced” and the “plasma concentration of AST” value [4] was “significantly reduced”. For the same compound, the “expression of αSMA in liver tissues” value [5, 11] was “significantly reduced”, the “expression of galectin-3 in liver tissues” value [6, 13] was “significantly reduced” and the “relative area of lipid droplets in liver tissues” value ([8]; FIG. 4) was “tendency of decreasing”.
`COc1ccccc1[C@H](Cn1c(=O)n(C(C)(C)C(=O)O)c(=O)c2c(C)c(-c3ncco3)sc21)OC1CCOCC1` [firsocostat, reference compound] was tested, and the “protein expression” value [2] was “relatively low response”.
